Test: NO-releasing ability under the oxidation by horseradish peroxidase (HRP) in the presence of H2O2 for 20min, expressed as nitrite concentration
Type: functional

Row | Structure (SMILES) | Concentration [µM]
1 | Cc1ccc(NC(=N)NO)cc1 | 6
2 | Cc1ccc(C/N=C(/N)NO)cc1 | 113
3 | COc1ccc(C/N=C(/N)NO)cc1 | 49
4 | N=C(NO)NCc1ccccc1 | 33
5 | N/C(=N/CCCC(N)C(=O)O)NO (configuration not stated) | 12
6 | N=C(NO)Nc1ccc(Cl)cc1 | 63
7 | N/C(=N/Cc1ccc(Cl)cc1)NO | 151
8 | COc1ccc(NC(=N)NO)cc1 | 24
9 | N/C(=N/c1ccc(Br)cc1)NO | 54
10 | N/C(=N/Cc1ccc([N+](=O)[O-])cc1)NO | 65
11 | N=C(N)NCCC[C@H](N)C(=O)O | 0
12 | N=C(NO)Nc1ccccc1 | 28

Source: ChEMBL document CHEMBL1135451, “Electrochemical and peroxidase oxidation study of N'-hydroxyguanidine derivatives as NO donors” (Bioorg Med Chem Lett, 2002)
